These results are taken from ChEMBL document CHEMBL5154930, “Design, Synthesis, and Biological Evaluations of DOT1L Peptide Mimetics Targeting the Protein-Protein Interactions between DOT1L and MLL-AF9/MLL-ENL” (J Med Chem, 2022).

In general, Ki refers to the equilibrium dissociation constant of an inhibitor or competing ligand from its target. The IC50 is the midpoint of a concentration-inhibition curve. Broadly, the Papp A→B is how fast a substance crosses the layer from the apical side.

Non-standard residues stand in square brackets, D forms with d. Residues, ends and D or L forms follow the SMILES beside them. *: point of attachment. X6 = c1ccc(C[C@H](N*)c2nc3cccc(-c4ccccc4)c3[nH]2)cc1; X7 = CC[C@H](C)[C@H](N*)c1nc2cccc(-c3ccccc3)c2[nH]1; X3 = CC(C)C[C@H](N*)c1nc2cccc(-c3ccccc3)c2[nH]1; X5 = c1ccc(-c2cccc3nc([C@@H]4CCCN4*)[nH]c23)cc1; X4 = CC(C)[C@H](N*)c1nc2cccc(-c3ccccc3)c2[nH]1; X1 = C[C@H](N*)c1nc2cccc(-c3ccccc3)c2[nH]1; Ala(cPent) = N[C@@H](CC1CCCC1)C(=O)O; Pentanoyl(4-Me) = CC(C)CCC(=O)*; Dap(Me) = CNC[C@H](N)C(=O)O; Dap = NC[C@H](N)C(=O)O; Bz = O=C(c1ccccc1)*

One data set deals with T1, Protein AF-9 (Homo sapiens, UniProt P42568).
T1 sequence (P42568 whole entry): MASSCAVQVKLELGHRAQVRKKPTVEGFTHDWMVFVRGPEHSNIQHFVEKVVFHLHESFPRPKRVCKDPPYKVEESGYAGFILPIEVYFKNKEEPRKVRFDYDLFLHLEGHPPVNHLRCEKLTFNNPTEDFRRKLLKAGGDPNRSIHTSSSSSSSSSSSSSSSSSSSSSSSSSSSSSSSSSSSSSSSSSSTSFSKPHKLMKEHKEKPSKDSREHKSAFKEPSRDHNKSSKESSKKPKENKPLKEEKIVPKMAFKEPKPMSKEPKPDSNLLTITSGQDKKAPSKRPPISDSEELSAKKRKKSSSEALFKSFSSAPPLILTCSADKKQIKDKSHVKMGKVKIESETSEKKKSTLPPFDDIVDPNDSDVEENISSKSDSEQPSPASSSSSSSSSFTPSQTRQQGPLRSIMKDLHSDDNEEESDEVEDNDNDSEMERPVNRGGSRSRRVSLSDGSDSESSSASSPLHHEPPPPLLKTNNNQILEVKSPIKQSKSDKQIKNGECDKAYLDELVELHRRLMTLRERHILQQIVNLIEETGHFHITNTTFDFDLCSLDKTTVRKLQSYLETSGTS
The data set can be described thus: Binding affinity to MBP-tagged human recombinant AF9 (487 to 568 residues) incubated for 40 mins by measuring fluorescence polarization by microplate reader method. For orientation: Fluorescence polarisation rises when a labelled molecule tumbles more slowly, as on binding a larger partner.

The test system of data set [1] is MOLM-13. The data set is described as follows: cells. The following applies: Homo sapiens, MOLM-13, 192 h.
Description: Anticancer activity against human MOLM-13 cells harbouring MLL-AF9 assessed as inhibition of cell growth treated for 8 days measured by CCK-8 kit method
For a further data set, the system named is KOPN-8. The data set is described as follows: cells. The conditions noted are these: Homo sapiens, KOPN-8, 192 h.
For the next data set, the system named is RS4-11. The data set is described as follows: Anticancer activity against human RS4-11 cells assessed as inhibition of cell growth treated for 8 days measured by CCK-8 kit method. Type of data set: functional, cell-based. The conditions noted are these: RS4-11, 192 h. In general terms: Formazan colour is commonly taken as a measure of viable cells.
For another data set, the system named is MV4-11. The data set is described as follows: Anticancer activity against human MV4-11 cells assessed as inhibition of cell growth treated for 8 days measured by CCK-8 kit method. It counts as functional, cell-based. The conditions noted are these: MV4-11, 192 h.
The test system of a further data set is K562. The data set can be described thus: Anticancer activity against human K562 cells assessed as inhibition of cell growth treated for 8 days measured by CCK-8 kit method. It counts as functional, cell-based. The conditions noted are these: K562, 192 h.
Data set [2] in a line: Apparent permeability across apical to basolateral side in human Caco-2 cells. Type of data set: ADME, cell-based. A general note: Caco-2 monolayers are a common model of the intestinal barrier.
A short description of data set [3]: Stability in human plasma assessed as compound remaining measured upto 1440 mins by HPLC analysis. It counts as ADME, cell-free. The following applies: read-out: Stability.
The subject of data set [4] is MOLM-13. The data set can be described thus: cells. The following applies: Homo sapiens, MOLM-13, 96 h.
Description: Anticancer activity against human MOLM-13 cells harbouring MLL-AF9 assessed as inhibition of cell growth treated for 4 days measured by CCK-8 kit method
The subject of data set [5] is MOLM-13. The data set is described as follows: cells. The following applies: Homo sapiens, MOLM-13, 120 h.
Description: Anticancer activity against human MOLM-13 cells harbouring MLL-AF9 assessed as inhibition of cell growth treated for 5 days measured by CCK-8 kit method
In data set [6] the test system is MOLM-13. The data set is described as follows: cells. The conditions noted are these: Homo sapiens, MOLM-13, 144 h.
Description: Anticancer activity against human MOLM-13 cells harbouring MLL-AF9 assessed as inhibition of cell growth treated for 6 days measured by CCK-8 kit method
Data set [7] concerns MOLM-13. The data set is described as follows: cells. The following applies: Homo sapiens, MOLM-13, 168 h.
Description: Anticancer activity against human MOLM-13 cells harbouring MLL-AF9 assessed as inhibition of cell growth treated for 7 days measured by CCK-8 kit method
In data set [8] the test system is MOLM-13. The data set is described as follows: cells. The following applies: Homo sapiens, MOLM-13, 216 h.
Description: Anticancer activity against human MOLM-13 cells harbouring MLL-AF9 assessed as inhibition of cell growth treated for 9 days measured by CCK-8 kit method

Description for KOPN-8: Anticancer activity against human KOPN-8 cells harbouring MLL-ENL assessed as inhibition of cell growth treated for 8 days measured by CCK-8 kit method

With `CC[C@@H](C)[C@H](NC(=O)[C@@H]1CCCN1C(=O)[C@H](CC(C)C)NC(C)=O)C(=O)N[C@@H](CO)C(=O)N[C@H](C(=O)N1CCC[C@H]1C(=O)N[C@@H](CC(C)C)C(=O)N(C)C)[C@@H](C)CC`, the Ki on Protein AF-9 is 160 nM.
Take `CC(=O)N[C@@H](CC(C)C)C(=O)N1CCC[C@H]1C(=O)N[C@H](C(=O)N[C@@H](CN)C(=O)N[C@@H](CC1CCCC1)C(=O)N[C@@H](C)c1nc2cccc(-c3ccccc3)c2[nH]1)C(C)C` (Ac-LPV[Dap][Ala(cPent)]-X1): the inhibition constant Ki at Protein AF-9 came out at 17 nM. The 50% inhibitory concentration (IC50) is 460 nM in the data set on MOLM-13 [1] and 440 nM in the data set with KOPN-8.
The like results for `CC(=O)N[C@@H](CC(C)C)C(=O)N1CCC[C@H]1C(=O)N[C@H](C(=O)N[C@@H](CN)C(=O)N[C@@H](CC1CCCC1)C(=O)N[C@@H](CC(C)C)c1nc2cccc(-c3ccccc3)c2[nH]1)C(C)C` (Ac-LPV[Dap][Ala(cPent)]-X3) were, in that order, 19 nM, 490 nM and 430 nM.
The matching figures for `CC(=O)N[C@@H](CC(C)C)C(=O)N1CCC[C@H]1C(=O)N[C@H](C(=O)N[C@@H](CN)C(=O)N[C@@H](CC1CCCC1)C(=O)N[C@H](c1nc2cccc(-c3ccccc3)c2[nH]1)C(C)C)C(C)C` (Ac-LPV[Dap][Ala(cPent)]-X4): 29 nM, 640 nM and 750 nM.
`CC(=O)N[C@@H](CC(C)C)C(=O)N1CCC[C@H]1C(=O)N[C@H](C(=O)N[C@@H](CN)C(=O)N[C@@H](CC1CCCC1)C(=O)N1CCC[C@H]1c1nc2cccc(-c3ccccc3)c2[nH]1)C(C)C` (Ac-LPV[Dap][Ala(cPent)]-X5): at Protein AF-9, the Ki stood at 22 nM. Further, the IC50 in the data set with MOLM-13 [1] is 500 nM; with KOPN-8, 680 nM.
The like results for `CC(=O)N[C@@H](CC(C)C)C(=O)N1CCC[C@H]1C(=O)N[C@H](C(=O)N[C@@H](CN)C(=O)N[C@@H](CC1CCCC1)C(=O)N[C@@H](Cc1ccccc1)c1nc2cccc(-c3ccccc3)c2[nH]1)C(C)C` (Ac-LPV[Dap][Ala(cPent)]-X6) were, in that order, 13 nM, 440 nM and 410 nM.
The like results for `CC[C@H](C)[C@H](NC(=O)[C@H](CC1CCCC1)NC(=O)[C@H](CN)NC(=O)[C@@H](NC(=O)[C@@H]1CCCN1C(=O)[C@H](CC(C)C)NC(C)=O)C(C)C)c1nc2cccc(-c3ccccc3)c2[nH]1` (Ac-LPV[Dap][Ala(cPent)]-X7) were, in that order, 23 nM, 610 nM and 480 nM.
The matching figures for `CNC[C@H](NC(=O)[C@@H](NC(=O)[C@@H]1CCCN1C(=O)c1ccccc1)C(C)C)C(=O)N[C@@H](CC1CCCC1)C(=O)N[C@@H](C)c1nc2cccc(-c3ccccc3)c2[nH]1` (Bz-PV[Dap(Me)][Ala(cPent)]-X1): 32 nM, 740 nM and 670 nM.
As to `CC(C)[C@H](NC(=O)[C@@H]1CCCN1C(=O)c1ccccc1)C(=O)N[C@@H](CN)C(=O)N[C@@H](CC1CCCC1)C(=O)N[C@@H](C)c1nc2cccc(-c3ccccc3)c2[nH]1` (Bz-PV[Dap][Ala(cPent)]-X1), the Ki at Protein AF-9 was determined as 15 nM. Moreover, the IC50 was 310 nM in the data set on MOLM-13 [1] and 330 nM in the data set on KOPN-8.
`CC[C@H](C)[C@H](NC(=O)[C@H](CO)NC(=O)[C@@H](NC(=O)[C@@H]1CCCN1C(=O)[C@H](CC(C)C)NC(C)=O)C(C)C)C(=O)N1CCC[C@H]1C(=O)N[C@@H](CC(C)C)C(=O)N(C)C` (HELM PEPTIDE1{[ac].L.P.V.S.I.P.L.[CN(C)[*:1]]}$$$$V2.0): the Ki on Protein AF-9 was found to be 160 nM.
Take `CC(C)CCC(=O)N1CCC[C@H]1C(=O)N[C@H](C(=O)N[C@@H](CN)C(=O)N[C@@H](CC1CCCC1)C(=O)N[C@@H](C)c1nc2cccc(-c3ccccc3)c2[nH]1)C(C)C` ({Pentanoyl(4-Me)}-PV[Dap][Ala(cPent)]-X1): on Protein AF-9, the inhibition constant Ki was 9 nM. Also, the half-inhibitory concentration (IC50) in the data set on RS4-11 was found to be 380 nM; with MV4-11, 140 nM; with K562 it was 33000 nM; in the data set on MOLM-13 [1], 150 nM; in the data set with KOPN-8, 190 nM; in the data set on MOLM-13 [4], 1290 nM. In addition, the IC50 is 932 nM in the data set on MOLM-13 [5], 589 nM in the data set with MOLM-13 [6], 257 nM in the data set on MOLM-13 [7] and 94 nM with MOLM-13 [8]. For the same compound, the apparent permeability from apical to basolateral (Papp A→B) in [2] was 1.82 ×10⁻⁶ cm/s. Moreover, the remaining at 24 h in data set [3] came out at 83%.
`CC(C)(C)NCC(O)COc1cccc2c1CC(O)C(O)C2` (stereo not drawn) [NADOLOL]: in data set [2], the apparent permeability from apical to basolateral (Papp A→B) stood at 0.13 ×10⁻⁶ cm/s. For the same compound, in data set [3], the remaining at 24 h turned out to be 97.1%.
The matching figures for `CC(C)NCC(O)COc1cccc2ccccc12` (stereo not drawn) [PROPRANOLOL]: 18.5 ×10⁻⁶ cm/s and 72.9%.
